Measured values published in patent US6495576B2, “Aminal diones as potassium channel openers” (Abbott Laboratories, priority 2001, dated 2002).
Like-named read-outs stand apart in the source and are kept apart here.

Test system: Landrace pig bladder strips
Assay: Functional potassium channel opening activity in isolated, field-stimulated bladder strips
Settings: for Index: ED50 for P1075 divided by ED50 for test agonist in a given tissue, averaged; for EC50: amount causing 50% of the agent's maximal response, field stimulation 0.05 Hz, 0.5 ms, 20 volts, read-out: ED50 (the source's name); for Efficacy (%P1075) / Emax: maximal efficacy on stimulated twitch, relative to P1075
Method: Compound were evaluated for functional potassium channel opening activity using tissue strips obtained from Landrace pig bladders.
Landrace pig bladders were obtained from female Landrace pigs of 9-30 kg. Landrace pig were euthanized with an intraperitoneal injection of pentobarbital solution, Somlethal ®, J. A. Webster Inc. Sterling Mass. The entire bladder was removed and immediately placed into Krebs Ringer bicarbonate solution (composition, mM: NaCl, 120; NaHCO3, 20; dextrose, 11; KCl, 4.7; CaCl2, 2.5; MgSO4, 1.5; KH2PO4, 1.2; K2EDTA, 0.01, equilibrated with 5% CO2/95% O2 pH 7.4 at 37° C.). Propranolol (0.004 mM) was included in all of the assays to block β-adrenoceptors. The trigonal and dome portions were discarded. Strips 3-5 mm wide and 20 mm long were prepared from the remaining tissue cut in a circular fashion. The mucosal layer was removed. One end was fixed to a stationary glass rod and the other to a Grass FT03 transducer at a basal preload of 1.0 gram. Two parallel platinum electrodes were included in the stationary glass rod to provide field stimulation of 0.05 Hz, 0.5 milli-seconds at 20 volts. This low frequency stimulation produced a stable twitch response of 100-500 centigrams. Tissues were allowed to equilibrate for at least 60 minutes and primed with 80 mM KCl. A control concentration response curve (cumulative) was generated for each tissue using the potassium channel opener P1075 as the control agonist. […] After a 60 minute rinsing period, a concentration response curve (cumulative) was generated for the test agonist in the same fashion as that used for control agonist P1075. The maximal efficacy of each compound (expressed as % relative to P1075) is reported. The amount of agent necessary to cause 50% of the agent's maximal response (ED50) was calculated using “ALLFIT” (DeLean et al., Am. J. Physiol., 235, E97 (1980)), hereby incorporated by reference. Agonist potencies were also expressed as an index relative to P1075. The index was calculated by dividing the ED50 for P1075 by the ED50 for the test agonist in a given tissue. Each tissue was used for only one test agonist, and the indices obtained from each tissue were averaged to provide an average index of potency.

SMILES	Index	EC50	Efficacy (%P1075)	Emax (Sus scrofa)	EC50 (Sus scrofa)	effect on stimulated twitch (control agonist, dose dependent, 10^−9 to 10^−5 M)
CC(C)(C)C(NC(=O)c1cccc(Cl)c1)Nc1c(Nc2cccnc2)c(=O)c1=O (single isomer, unassigned; (+)) [Example 56, (+) 3-Chloro-N-(1-{[3.4-dioxo-2-(3-pyridinylamino)-1-cyclobuten-1-yl]amino}-2,2-dimethylpropyl)benzamide]	0.028	2200 nM	94 %P1075			
CC(C)(Cc1ccccc1)C(NC(=O)c1ccccc1)Nc1c(Nc2cccnc2)c(=O)c1=O (centres unmarked) [Example 86]	0.24	640 nM	85 %P1075			
CC(C)(C)C(NC(=O)c1cc(F)cc(F)c1)Nc1c(Nc2cccnc2)c(=O)c1=O (single isomer, unassigned; (-)) [Example 50, (−)N-(1-{[3,4-Dioxo-2-(3-pyridinylamino)-1-cyclobuten-1-yl]amino}-2,2-dimethylpropyl)-3,5-difluorobenzamide]	0.14	6800 nM		79%		
CC(C)(C)C(NC(=O)c1cccc(Br)c1)Nc1c(Nc2cccnc2Cl)c(=O)c1=O (centres unmarked) [Example 67, 3-Bromo-N-[1-({2-[(2-chloropyridin-3-yl)amino]-3,4-dioxo-1-cyclobuten-1-yl}amino)-2,2-dimethylpropyl]benzamide]	0.029			72%	2500 nM	
Cc1cccc(C(=O)NC(Nc2c(Nc3cccnc3)c(=O)c2=O)C(C)(C)C)c1 (centres unmarked) [Example 6, N-(1-{[3,4-Dioxo-2-(3-pyridinylamino)-1-cyclobuten-1-yl]amino}-2,2-dimethylpropyl)-3-methylbenzamide]	0.067					
CC(C)(C)C(NC(=O)c1cc(Cl)cc(Cl)c1)Nc1c(Nc2cccnc2Cl)c(=O)c1=O (centres unmarked) [Example 79, 3,5-Dichloro-N-[1-({2-[(2-chloropyridin-3-yl)amino]-3,4-dioxocyclobut-1-en-1-yl}amino)-2,2-dimethylpropyl]benzamide]	0.024			60%	4600 nM	
CC(C)(C)C(NC(=O)c1cccc(F)c1)Nc1c(Nc2cccnc2Cl)c(=O)c1=O (centres unmarked) [Example 78]	0.18	840 nM	98 %P1075			
CCC(CC)C(NC(=O)c1ccc(Cl)cc1)Nc1c(Nc2cccnc2)c(=O)c1=O (centres unmarked) [Example 21, 4-Chloro-N-(1-{[3,4-dioxo-2-(3-pyridinylamino)-1-cyclobuten-1-yl]amino}-2-ethylbutyl)benzamide]	0.092					
CC(C)(Cc1ccccc1)C(NC(=O)c1ccc(Cl)cc1)Nc1c(Nc2cccnc2Cl)c(=O)c1=O (centres unmarked) [Example 31, 4-Chloro-N-[1-({2-[(2-chloro-3-pyridinyl)amino]-3,4-dioxo-1-cyclobuten-1-yl}amino)-2,2-dimethyl-32-phenylpropyl]benzamide]	0.039	2900 nM	76 %P1075			
CC(C)(C)C(NC(=O)c1ccc(Cl)cc1)Nc1c(Nc2cccnc2Cl)c(=O)c1=O (centres unmarked) [Example 29, 4-Chloro-N-[1-({2-[(2-chloro-3-pyridinyl)amino]-3,4-dioxo-1-cyclobuten-1-yl}amino)-2,2-dimethylpropyl]benzamide]	0.028					
CC(C)(C)C(NC(=O)c1cccc(Cl)c1)Nc1c(Nc2cccnc2)c(=O)c1=O (single isomer, unassigned; (-)) [Example 57, (−) 3-Chloro-N-(1-{[3,4-dioxo-2-(3-pyridinylamino)-1-cyclobuten-1-yl]amino}-2,2-dimethylpropyl)benzamide]	0.015	4000 nM		81%		
O=C(NC(Nc1c(Nc2cccnc2)c(=O)c1=O)C(F)(F)C(F)(F)F)c1cccc(Cl)c1 (centres unmarked) [Example 26, 3-Chloro-N-(1-{[3,4-dioxo-2-(3-pyridinylamino)-1-cyclobuten-1-yl]amino}−2,2,3,3,3-pentafluoropropyl)benzamide]	0.64					
Cc1cccc(C(=O)NC(Nc2c(Nc3cccnc3Cl)c(=O)c2=O)C(C)(C)C)c1 (centres unmarked) [Example 32, N-[1-({2-[(2-Chloro-3-pyridinyl)amino]-3,4-dioxo-1-cyclobuten-1-yl}amino)-2,2-dimethylpropyl]-3-methylbenzamide]	0.076					
Cc1cccc(C(=O)NC(Nc2c(Nc3cccnc3Cl)c(=O)c2=O)C(C)(C)Cc2ccccc2)c1 (centres unmarked) [Example 61, N-[1-({2[(2-Chloropyiridin-3-yl)amino]-3,4-dioxo-1-cyclobuten-1-yl}amino)-2,2-dimethyl-3-phenylpropyl]-3-methylbenzamide]	0.50	470 nM	64 %P1075			
CC(C)(Cc1ccccc1)C(NC(=O)c1cccc(Cl)c1)Nc1c(Nc2cccnc2)c(=O)c1=O (centres unmarked) [Example 59, 3-Chloro-N-(1-{[3,4-dioxo-2-(3-pyridinylamino)-1-cyclobuten-1-yl]amino}-2,2-dimethyl-3-phenylpropyl)benzamide]	0.062			57%	1700 nM	
CC(C)(C)C(NC(=O)CCc1ccccc1)Nc1c(Nc2cccnc2Cl)c(=O)c1=O (centres unmarked) [Example 87, N-[1-({2-[(2-chloropyridin-3-yl)amino]-3,4-dioxo-1-cyclobuten-1-yl}amino)-2,2-dimethylpropy1]-3-phenylpropanamide]	0.039	1900 nM	96 %P1075			
CC(C)(C)C(NC(=O)c1cccc(Br)c1)Nc1c(Nc2cccnc2)c(=O)c1=O (centres unmarked) [Example 66, 3-Bromo-N-(1-{[3,4-dioxo-2-(3-pyridinylamino)-1-cyclobuten-1-yl]amino}-2,2-dimethylpropyl)benzamide]	0.040			74%	4200 nM	
CC(C)(C)C(NC(=O)CCc1ccccc1)Nc1c(Nc2cccnc2)c(=O)c1=O (centres unmarked) [Example 36, N-(1-{[3,4-Dioxo-2-(3-pyridinylamino)-1-cyclobuten-1-yl]amino}-2,2-dimethylpropyl)-3-phenylpropionamide]	0.063					
CC(C)(C)C(NC(=O)c1cc(Cl)cc(Cl)c1)Nc1c(Nc2cccnc2)c(=O)c1=O (centres unmarked) [Example 12, 3,5-Dichloro-N-(1-{[3,4-dioxo-2-(3-pyridinylamino)-1-cyclobuten-1-yl]amino}-2,2-dimethylpropyl)benzamide]	0.12					
CC(C)(C)C(NC(=O)c1ccc(I)cc1)Nc1c(Nc2cccnc2)c(=O)c1=O (centres unmarked) [Example 3, N-(1-{[3,4-Dioxo-2-(3-pyridinylamino)-1-cyclobuten-1-yl]amino}-2,2-dimethylpropyl)-4-iodobenzamide]	0.062					
CC(C)(C)[C@H](NC(=O)c1cc(Cl)cc(Cl)c1)Nc1c(Nc2cccnc2Cl)c(=O)c1=O [Example 108, (+) 3,5-Dichloro-N-[(1S)-1-({2-[(2-chloropyridin-3-yl)amino]-3,4-dioxocyclobut-1-en-1-yl}amino)-2,2-dimethylpropyl]benzamide]	0.033			89%	4200 nM	
CCC(C)(C)N=C(NC#N)Nc1cccnc1 [Example P1075, reference compound]						completely eliminated the stimulated twitch
CC(C)(Cc1ccccc1)C(NC(=O)c1cc(F)cc(F)c1)Nc1c(Nc2cccnc2)c(=O)c1=O (centres unmarked) [Example 55, N-(1-{[3,4-Dioxo-2-(3-pyridinylamino)-1-cyclobuten-1-yl]amino}-2,2-dimethyl-3-phenylpropyl)-3,5-difluorobenzamide]	0.053			75%	2300 nM	
CC(C)(C)CC(NC(=O)c1cccc(Cl)c1)Nc1c(Nc2cccnc2)c(=O)c1=O (centres unmarked) [Example 64, 3-Chloro-N-(1-{[3,4-dioxo-2-(3 pyridinylamino)-1-cyclobuten-1-yl]amino}-3,3-dimethylbutyl)benzamide]	0.025			76%	4200 nM	
CC(C)(C)C(NC(=O)c1cccc(F)c1)Nc1c(Nc2cccnc2)c(=O)c1=O (centres unmarked) [Example 7, N-(1-{[3,4-Dioxo-2-(3-pyridinylamino)-1-cyclobuten-1-yl]amino}-2,2-dimethylpropyl)-3-fluorobenzamide]	0.025					
CC(C)(C)C(NC(=O)c1cc(F)cc(F)c1)Nc1c(Nc2cccnc2)c(=O)c1=O (centres unmarked) [Example 16, N-(1-{[3,4-Dioxo-2-(3-pyridinylamino)-1-cyclobuten-1-yl]amino}-2,2-dimethylpropyl)-3,5-difluorobenzamide]	0.046					
